Here are results for three compounds from article PMC6099400, “A New Benzophenone C-Glucoside and Other Constituents of Pseuduvaria fragrans and Their α-Glucosidase Inhibitory Activity” (Molecules : A Journal of Synthetic Chemistry and Natural …, 2018).

For experiment [1], the target named is T1, Yeast α-glucosidase enzyme (Saccharomyces cerevisiae, UniProt P53341). The experiment is described as follows: Kinetic study of α-glucosidase inhibition (Lineweaver-Burk and secondary plots). The experiment is classed as biochemical. Particulars: for mode of enzyme inhibition: Lineweaver-Burk plots; for Slope: Lineweaver-Burk. Here is the method: Lineweaver-Burk plots of the inverted values of velocity (1/V) versus the inverted values of substrate concentration (1/[S]) were prepared. […] To determine the Ki of each amide, we constructed a secondary plot by replotting the reciprocal of Km (1/Km) against inhibitor concentration.
T1 sequence (P53341 whole entry): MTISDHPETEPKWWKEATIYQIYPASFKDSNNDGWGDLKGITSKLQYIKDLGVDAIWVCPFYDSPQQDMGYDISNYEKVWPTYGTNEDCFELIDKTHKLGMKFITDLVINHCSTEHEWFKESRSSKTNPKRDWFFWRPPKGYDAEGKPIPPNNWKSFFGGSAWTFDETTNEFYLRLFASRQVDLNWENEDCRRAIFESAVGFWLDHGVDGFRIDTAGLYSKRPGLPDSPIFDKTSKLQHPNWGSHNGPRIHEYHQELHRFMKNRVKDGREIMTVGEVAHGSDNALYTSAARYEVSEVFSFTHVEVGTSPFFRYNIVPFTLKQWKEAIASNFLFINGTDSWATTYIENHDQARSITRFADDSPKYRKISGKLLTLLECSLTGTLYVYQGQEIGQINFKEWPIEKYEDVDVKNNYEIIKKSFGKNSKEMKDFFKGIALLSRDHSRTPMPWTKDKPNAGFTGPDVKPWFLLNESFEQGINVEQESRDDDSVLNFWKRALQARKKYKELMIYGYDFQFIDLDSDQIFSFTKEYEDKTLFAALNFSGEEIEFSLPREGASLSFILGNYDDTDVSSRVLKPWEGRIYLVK
Vacuum liquid chromatography (VLC) and column chromatography (CC) were performed on silica gel 60 (40–63 μm, Merck, Darmstadt, Germany), silica gel 60 (63–200 μm, Merck, Darmstadt, Germany) or Sephadex LH-20 (Pharmacia, Piscataway, NJ, USA) or Diaion HP20 (Mitsubishi Chemical, Tokyo, Japan). For preparative HPLC, a Shim-pack Prep-ODS (No.2025820) column (Shimadzu, Tokyo, Japan), with isocratic 50% methanol in water, SPD-10A UV-Vis detector (Shimadzu, Tokyo, Japan), and flow rate 1 mL/min, was used. NMR spectra were obtained with a Bruker Avance DPX-300 FT-NMR spectrometer (Brucker Corporation, Billerica, MA, USA). High-resolution electrospray ionization mass spectra (HR-ESI-MS) were recorded with a Bruker micro TOF mass spectrometer (Bruker Daltonics, Billerica, MA, USA). Optical rotations were obtained with a PerkinElmer 341 polarimeter (PerkinElmer, Boston, MA, USA). UV spectra were measured on an Agilent Technologies Cary 60 UV-Vis (Agilent, Santa Clara, CA, USA), and IR spectra (Agilent, Santa Clara, CA, USA) were recorded on a Perkin-Elmer FT-IR 1760x spectrophotometer (PerkinElmer, Boston, MA, USA). […] Absorbance in 96-well plates was measured using a microplate reader (Wallac1420 Multilevel counter, Victor3, PerkinElmer).
The kinetic assay of enzyme inhibition was done in a 96-well plate. The enzyme kinetics parameters (Km and Vmax) were obtained by analyzing the double reciprocal Lineweaver-Burk plot (1/V vs. 1/[S]). Each experiment was carried out by varying the concentration of pNPG (2.0, 1.0, 0.5, 0.25, 0.125 mM) in the absence and presence of different concentrations of the test sample. The reaction was monitored at 405 nm by a microplate reader every 5 min for a total time of 30 min. Each experiment was performed in triplicate. […] The inhibition constant (Ki) of each compound was then calculated from the intersection on the abscissa.

In experiment [2] the target is T1, Yeast α-glucosidase enzyme. To be noted: earlier report; cited from earlier work.

Each structure is given as a SMILES string. Read-outs that look alike come from different tables or passages of the source.

Consider `C[C@H]1O[C@H](O[C@H]2[C@H](O)[C@@H](O)[C@@H](O[C@H]3[C@H](O)[C@@H](O)C(O)O[C@@H]3CO)O[C@@H]2CO)[C@H](O)[C@@H](O)[C@@H]1N[C@H]1C=C(CO)[C@@H](O)[C@H](O)[C@H]1O` (stereo partly shown) [acarbose, reference compound], for which, in experiment [1], the “mode of enzyme inhibition” value is on record as “competitive inhibition”.
In the case of `COc1cc(/C=C/C(=O)NCCc2ccc(O)cc2)ccc1O` [Compound 7, N-trans-feruloyltyramine], the “mode of enzyme inhibition” value in experiment [1] is given as “uncompetitive inhibitors”. For the same compound, the Slope in experiment [1] (inhibitor dose 2.0 µM) worked out at 36.62; in experiment [1] (inhibitor dose 4.0 µM) it was 37.56; in experiment [1] (inhibitor dose 8.0 µM), 36.51. Moreover, the Vmax is 0.0072 ΔA405/min in experiment [1] (inhibitor dose 2.0 µM), 0.0044 ΔA405/min in experiment [1] (inhibitor dose 4.0 µM) and 0.0027 ΔA405/min in experiment [1] (inhibitor dose 8.0 µM).
Regarding `O=C(/C=C/c1ccc(O)cc1)NCCc1ccc(O)cc1` [Compound 6, N-trans-coumaroyltyramine], the “mode of enzyme inhibition” value is listed as “uncompetitive inhibitors” in experiment [1] and “uncompetitive α-glucosidase inhibition” in experiment [2]. The Slope in experiment [1] (inhibitor dose 0.5 µM) is 34.55; in experiment [1] (inhibitor dose 1.0 µM), 34.67; in experiment [1] (inhibitor dose 2.0 µM), 35.56. Besides, the results for the Vmax in experiment [1] (inhibitor dose 0.5 µM), in experiment [1] (inhibitor dose 1.0 µM) and in experiment [1] (inhibitor dose 2.0 µM) were 0.0077 ΔA405/min, 0.0030 ΔA405/min and 0.0018 ΔA405/min, respectively.
